From DBAASP come the findings set out here.

One may read the MIC as the lowest concentration that inhibits growth of the organism.

Test systems include Streptococcus mutans; Pseudomonas aeruginosa; Escherichia coli B; Staphylococcus aureus; Bacillus subtilis; Escherichia coli ML-35.
Experiment in all cases: ≥ marks a high value that may be exact or a test limit, other limits are often not marked, values filed in µg/mL are converted to µM
For assay [1], the system named is Pseudomonas aeruginosa PAO1.
Assay [2] concerns Escherichia coli ATCC 25922.
The test system of assay [3] is Staphylococcus aureus USA 300.
For assay [4], the system named is Klebsiella pneumoniae ATCC 13883.
Assay [5] relates to Candida albicans F7-39/IDE99.
Assay [6] relates to Bacillus subtilis ATCC 23857.
Assay [7] relates to Staphylococcus epidermidis ATCC 12228.
Assay [8] has as its system Staphylococcus aureus ATCC 29213.
The subject of assay [9] is Salmonella enterica subsp. enterica serovar Pullorum C79-13.
Assay [10] relates to Enterococcus faecalis ATCC 29212.
Assay [11] has as its system Salmonella enterica subsp. enterica serovar Typhimurium C77-31.

Values after ≈ are worked out from the molar mass of the structure shown. Some results are limits rather than exact numbers.

Take `CC(C)C[C@H](NC(=O)[C@H](C)NC(=O)[C@H](Cc1cnc[nH]1)NC(=O)[C@H](CC(C)C)NC(=O)[C@H](CC(C)C)NC(=O)[C@H](Cc1cnc[nH]1)NC(=O)[C@@H](NC(=O)[C@H](C)N)[C@@H](C)O)C(=O)N[C@@H](CCC(N)=O)C(=O)N[C@@H](CCCN=C(N)N)C(=O)N[C@@H](Cc1ccccc1)C(N)=O` [ATHLLHALQRF]: the MIC in the assay on Streptococcus mutans was ≥ 191 µM.
`CC(C)C[C@H](NC(=O)[C@H](CC(C)C)NC(=O)CNC(=O)[C@H](CC(C)C)NC(=O)[C@H](CC(C)C)NC(=O)[C@H](CO)NC(=O)[C@H](CC(C)C)NC(=O)[C@H](CC(C)C)NC(=O)[C@H](CO)NC(=O)[C@H](CC(C)C)NC(=O)[C@H](CC(C)C)NC(=O)[C@H](CCCCN)NC(=O)CN)C(N)=O` [GKLLSLLSLLGLL]: the MIC in assay [1] was > 25 µM; in [2], > 25 µM; in assay [3] it was 3.1 µM (≈ 4.15 µg/mL); in [4], 25 µM (≈ 33.5 µg/mL).
As for `CC(C)C[C@H](NC(=O)[C@H](CC(C)C)NC(=O)[C@H](CCCCN)NC(=O)CNC(=O)[C@H](CC(C)C)NC(=O)[C@H](CC(C)C)NC(=O)[C@H](CO)NC(=O)[C@H](CC(C)C)NC(=O)[C@H](CC(C)C)NC(=O)[C@H](CO)NC(=O)[C@H](C)NC(=O)[C@H](CC(C)C)NC(=O)CN)C(N)=O` [GLASLLSLLGKLL], the MIC in assay [1] is > 25 µM; in [2] it was > 25 µM; in [3], 0.78 µM (≈ 1.01 µg/mL); in assay [4], 25 µM (≈ 32.4 µg/mL).
As for `CC(C)C[C@H](NC(=O)[C@H](CC(C)C)NC(=O)[C@H](CCCCN)NC(=O)CNC(=O)[C@H](C)NC(=O)[C@H](CC(C)C)NC(=O)[C@H](CO)NC(=O)[C@H](CC(C)C)NC(=O)[C@H](CC(C)C)NC(=O)[C@H](CO)NC(=O)[C@H](CC(C)C)NC(=O)[C@H](CC(C)C)NC(=O)CN)C(N)=O` [GLLSLLSLAGKLL], the MIC in [1] came to 12.5 µM (≈ 16.2 µg/mL); in assay [2], 3.1 µM (≈ 4.02 µg/mL); in assay [3] it was 0.78 µM (≈ 1.01 µg/mL); in assay [4], 3.1 µM (≈ 4.02 µg/mL).
With `CC[C@H](C)[C@H](NC(=O)[C@H](C)NC(=O)[C@H](C)NC(=O)[C@H](CC(C)C)NC(=O)[C@@H](NC(=O)[C@H](CCCCN)NC(=O)[C@H](CCCNC(=N)N)NC(=O)[C@@H]1CCCN1C(=O)[C@H](CC(C)C)NC(=O)CN)[C@@H](C)CC)C(=O)N[C@@H](C)C(=O)N[C@@H](CCCCN)C(=O)N[C@@H](CCCCN)C(=O)N[C@@H](CCCCN)C(=O)NCC(=O)N[C@@H](CCCCN)C(=O)N[C@@H](C)C(=O)N[C@@H](CCCCN)C(=O)NCC(=O)N1CCC[C@H]1C(=O)N[C@@H](CC(C)C)C(=O)N[C@@H](CCCCN)C(=O)N[C@@H](CC(C)C)C(=O)N[C@H](C(=O)N[C@@H](C)C(=O)N[C@@H](CCCCN)C(=O)N[C@@H](C)C(=O)O)C(C)C` [GLPRKILAAIAKKKGKAKGPLKLVAKA], the MIC is ≥ 100 µM in assay [5]; > 100 µM against Pseudomonas aeruginosa; ≥ 100 µM in the assay on Escherichia coli B; > 100 µM in the assay on Staphylococcus aureus; 12 µM (≈ 33.2 µg/mL) against Bacillus subtilis.
Consider `CC[C@H](C)[C@@H]1NC(=O)[C@H](C)NC(=O)[C@@H](NC(=O)[C@H](CC(C)C)NC(=O)[C@@H](NC(=O)[C@H](CCCCN)NC(=O)[C@H](CCCN=C(N)N)NC(=O)[C@@H]2CCCN2C(=O)[C@H](CC(C)C)NC(=O)CN)[C@@H](C)CC)CSSC[C@@H](C(=O)N[C@@H](CCCCN)C(=O)NCC(=O)N2CCC[C@H]2C(=O)N[C@@H](CC(C)C)C(=O)N[C@@H](CCCCN)C(=O)N[C@@H](CC(C)C)C(=O)N[C@H](C(=O)N[C@H]2CSSC[C@@H](C(=O)O)NC(=O)[C@H](CCCCN)NC2=O)C(C)C)NC(=O)[C@H](CCCCN)NC(=O)CNC(=O)[C@H](CCCCN)NC(=O)[C@H](CCCCN)NC(=O)[C@H](CCCCN)NC(=O)[C@H](C)NC1=O` [GLPRKILCAIAKKKGKCKGPLKLVCKC], for which the MIC is ≥ 100 µM in [5]; > 100 µM against Pseudomonas aeruginosa; ≥ 100 µM against Escherichia coli B; > 100 µM against Staphylococcus aureus; 4 µM (≈ 11.6 µg/mL) in the assay on Bacillus subtilis.
On to `CC[C@H](C)[C@H](N)C(=O)N[C@@H](CC(C)C)C(=O)NCC(=O)N[C@H](C(=O)N[C@H](C(=O)N[C@@H](CC(C)C)C(=O)N1CCC[C@H]1C(=O)N[C@@H](CC(C)C)C(=O)N[C@@H](CC(C)C)C(=O)N[C@@H](CCCCN)C(=O)NCC(=O)N[C@@H](CC(C)C)C(N)=O)[C@@H](C)CC)[C@@H](C)O` [ILGTILPLLKGL], for which the MIC in [6] is ≥ 256 µM; in [2], > 256 µM; in the assay with Escherichia coli ML-35 it was ≥ 256 µM; in assay [7] it was > 256 µM; in assay [8], > 256 µM.
As for `CC[C@H](C)[C@H](NC(=O)[C@H](CC(N)=O)NC(=O)[C@H](CCCCN)NC(=O)[C@H](CC(C)C)NC(=O)[C@H](CCC(N)=O)NC(=O)[C@H](CCC(N)=O)NC(=O)[C@@H](NC(=O)[C@H](CC(C)C)NC(=O)[C@@H](N)CCCCN)C(C)C)C(=O)N[C@@H](Cc1ccccc1)C(=O)N[C@@H](CCCN=C(N)N)C(=O)O` [KLVQQLKNIFR], the MIC in the assay with Streptococcus mutans is ≥ 90.1 µM.
On the same count and under the same terms, next, `CC(C)C[C@H](NC(=O)[C@H](CC(C)C)NC(=O)[C@H](CCCCN)NC(=O)[C@H](CC(C)C)NC(=O)[C@H](CC(C)C)NC(=O)[C@H](CCCCN)NC(=O)[C@H](CCCCN)NC(=O)[C@H](CC(C)C)NC(=O)[C@H](CC(C)C)NC(=O)[C@H](CCCCN)NC(=O)[C@@H](N)CC(C)C)C(=O)N[C@@H](CCCCN)C(=O)N[C@@H](CCCCN)C(=O)N[C@@H](Cc1ccccc1)C(N)=O` [LKLLKKLLKLLKKF]: 4.63 µM (≈ 8 µg/mL).
With `CC(C)C[C@H](NC(=O)[C@@H](NC(=O)[C@@H](NC(=O)[C@@H](N)CC(C)C)C(C)C)[C@@H](C)O)C(=O)N[C@H](C(=O)N[C@@H](Cc1ccccc1)C(=O)N[C@H](C(=O)O)C(C)C)C(C)C` [LVTLVFV], the MIC is ≥ 128 µM in [9]; > 128 µM in assay [2]; > 128 µM in [10]; ≥ 128 µM in assay [11]; > 128 µM in assay [7]; > 128 µM in [8].
As to `NC(N)=NCCC[C@H](NC(=O)[C@H](Cc1c[nH]c2ccccc12)NC(=O)[C@H](Cc1c[nH]c2ccccc12)NC(=O)[C@H](Cc1ccccc1)NC(=O)[C@H](CCCN=C(N)N)NC(=O)[C@H](CCCN=C(N)N)NC(=O)[C@@H](N)CCCN=C(N)N)C(=O)O` [RRRFWWR], the MIC against Streptococcus mutans is ≥ 53.8 µM.
On the same count and under the same terms, the figure for `NC(N)=NCCC[C@H](NC(=O)[C@H](CCCN=C(N)N)NC(=O)[C@H](Cc1c[nH]c2ccccc12)NC(=O)[C@H](Cc1c[nH]c2ccccc12)NC(=O)[C@H](CCCN=C(N)N)NC(=O)[C@@H](N)CCCN=C(N)N)C(=O)N[C@@H](Cc1c[nH]c2ccccc12)C(=O)O` [RRWWRRW] is 13.3 µM (≈ 16 µg/mL); for `CC(C)C[C@H](NC(=O)[C@H](Cc1cnc[nH]1)NC(=O)[C@H](CCC(N)=O)NC(=O)[C@H](Cc1c[nH]c2ccccc12)NC(=O)[C@@H](NC(=O)[C@H](CCC(N)=O)NC(=O)[C@H](Cc1ccccc1)NC(=O)[C@H](CC(C)C)NC(=O)[C@@H](N)Cc1ccc(O)cc1)[C@@H](C)O)C(=O)N[C@@H](Cc1ccccc1)C(=O)N[C@@H](CCCN=C(N)N)C(=O)O` [YLFQTWQHLFR] it is ≥ 81.2 µM.
